# Assay results published in patent publication US20120283228A1, “2alpha-Methyl and 2beta-Methyl Analogs of 19,26-Dinor-1alpha,25-Dihydroxyvitamin D3 and Their Uses” (WISCONSIN ALUMNI RESEARCH FOUNDATION, priority 2011, published 2012).
# Entries after “also recorded” stand apart in the source; their conditions may differ. Like-named read-outs stand apart in the source and are kept apart here.
# Columns and labels:
# [1] = target: T1, full-length recombinant rat vitamin D receptor (Rattus norvegicus, UniProt P13053); assay: biochemical; conditions: ability to compete with [3H]-1,25(OH)2D3 for binding to the vitamin D receptor, full-length recombinant rat VDR
# T1 sequence (P13053 1-423): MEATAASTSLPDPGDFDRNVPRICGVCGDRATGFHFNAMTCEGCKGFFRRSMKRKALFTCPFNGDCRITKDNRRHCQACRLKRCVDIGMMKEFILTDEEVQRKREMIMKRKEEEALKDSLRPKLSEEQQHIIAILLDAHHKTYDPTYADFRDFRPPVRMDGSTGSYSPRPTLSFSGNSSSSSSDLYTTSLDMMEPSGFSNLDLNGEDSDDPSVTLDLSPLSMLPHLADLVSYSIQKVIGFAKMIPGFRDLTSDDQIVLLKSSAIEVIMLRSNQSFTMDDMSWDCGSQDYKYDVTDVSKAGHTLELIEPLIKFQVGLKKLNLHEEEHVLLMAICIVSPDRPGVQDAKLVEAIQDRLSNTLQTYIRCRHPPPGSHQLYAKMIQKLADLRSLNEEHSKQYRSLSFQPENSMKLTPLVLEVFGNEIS
# Protocol: (§2) Full-length recombinant rat receptor was expressed in E. coli BL21 (DE3) Codon Plus RIL cells and purified to homogeneity using two different column chromatography systems. The first system was a nickel affinity resin that utilizes the C-terminal histidine tag on this protein. The protein that was eluted from this resin was further purified using ion exchange chromatography (S-Sepharose Fast Flow). Aliquots of the purified protein were quick frozen in liquid nitrogen and stored at −80° C. until use. For use in binding assays, the protein was diluted in TEDK50 (50 mM Tris, 1.5 mM EDTA, pH 7.4, 5 mM DTT, 150 mM KCl) with 0.1% Chaps detergent. The receptor protein and ligand concentration was optimized such that no more than 20% of the added radiolabeled ligand as bound to the receptor.
# (§3) Radiolabeled and unlabeled ligands were added to 100 mcl of the diluted protein at a final ethanol concentration of ≦10%; mixed and incubated overnight on ice to reach binding equilibrium. The following day, 100 mcl of hydroxylapaptite slurry (50%) was added to each tube and mixed at 10-minute intervals for 30 minutes. The hydroxylapaptite was collected by centrifugation and then washed three times with Tris-EDTA buffer (50 mM Tris, 1.5 mM EDTA, pH 7.4) containing 0.5% Titron X-100. After the final wash, the pellets were transferred to scintillation vials containing 4 ml of Biosafe II scintillation cocktail, mixed and placed in a scintillation counter. Total binding was determined from the tubes containing only radiolabeled ligand.
# vitamin D-deficient rats [2] = assay: Intestinal calcium transport (everted gut sac method); type: in vivo, Sprague-Dawley rats
# Protocol: (§1) Male, weanling Sprague-Dawley rats were placed on Diet 11 (0.47% Ca) diet +AEK for one week followed by Diet 11 (0.02% Ca) +AEK for 3 weeks. The rats were then switched to a diet containing 0.47% Ca for one week followed by two, weeks on a diet containing 0.02% Ca. Dose administration began during the last week on 0.02% calcium diet. Four consecutive ip doses were given approximately 24 hours apart. Twenty-four hours after the last dose, blood was collected from the severed neck and the concentration of serum calcium determined as a measure of bone calcium mobilization. The first 10 cm of the intestine was also collected for intestinal calcium transport analysis using the everted gut sac method.
# [3] = tested on: Human promyelocytic leukemia (HL60) cells; assay: HL-60 differentiation (nitro blue tetrazolium reduction); type: cell-based; conditions: for EC50: HL-60 cells, read-out: EC50, ability to promote HL-60 cell differentiation
# Protocol: Serial dilutions were prepared so that a range of drug concentrations could be tested without changing the final concentration of ethanol (≦0.2%) present in the cell cultures.
# Human promyelocytic leukemia (HL60) cells were grown in RPMI-1640 medium containing 10% fetal bovine serus. The cells were incubated at 37° C. in the presence of 5% CO2.
# HL60 cells were plated at 1.2×10^5 cells/ml. Eighteen hours after plating, cells in duplicate were treated with drug. Four days later, the cells were harvested and a nitro blue tetrazolium reduction assay was performed (Collins et al., 1979; J. Ex. Med. 149:969-974). The percentage of differentiated cells was determined by counting a total of 200 cells and recording the number that contained intracellular black-blue formazan deposits Verification of differentiation to monocytic cells was determined by measuring phagocytic activity (data not shown).
# [4] = target: T1, full-length recombinant rat vitamin D receptor; conditions: for Ki: read-out: Ki, ability to compete with [3H]-1,25(OH)2D3 for binding to the vitamin D receptor, full-length recombinant rat VDR
# Protocol: as §2, §3
# [5] = tested on: 24-hydroxylase (24Ohase) gene promoter; assay: In vitro transcription assay in ROS 17/2.8 (bone) cells, luciferase reporter; type: cell-based; conditions: for EC50: ROS 17/2.8 cells, 24-hydroxylase promoter-luciferase, read-out: EC50, transcriptional activity in bone cells; for logs less transcriptional activity than 1α,25-dihydroxyvitamin D3 in bone cells / times less transcriptional activity than 1α,25-dihydroxyvitamin D3 in bone cells: less than 1,25(OH)2D3
# Protocol: Transcription activity was measured in ROS 17/2.8 (bone) cells that were stably transfected with a 24-hydroxylase (24Ohase) gene promoter upstream of a luciferase reporter gene (Arbour et al., 1998). Cells were given a range of doses. Sixteen hours after dosing the cells were harvested and luciferase activities were measured using a luminometer.
# RLU=relative luciferase units.
# vitamin D-deficient rats [6] = assay: Bone calcium mobilization (serum calcium); type: in vivo, Sprague-Dawley rats; conditions: rats on low calcium diet (0.02%); for mobilization of bone calcium at 7,020 pmol/day: 7,020 pmol/day for 4 consecutive days; for mobilization of bone calcium at 35,100 pmol/day: 35,100 pmol/day for 4 consecutive days; for activity in mobilizing calcium from bone / serum calcium levels: all dosages tested; for times less potent than 1,25(OH)2D3 in bone (bone calcium mobilization): 4 ip doses
# Protocol: as §1
# [7] = compared with 1,25(OH)2D3 at 780 pmol/day
# [8] = rats on low calcium diet (0.02%), 4 ip doses
# [9] = rats on low calcium diet (0.02%)
Compound,Ki [1],"intestinal calcium transport at 7,020 pmol/day (vitamin D-deficient rats [2]; [7])","intestinal calcium transport at 35,100 pmol/day (vitamin D-deficient rats [2]; [7])",EC50 [3],"binding to the receptor as compared to 1,25(OH)2D3 [4]",EC50 [5],"logs less transcriptional activity than 1α,25-dihydroxyvitamin D3 in bone cells [5]","mobilization of bone calcium at 7,020 pmol/day (vitamin D-deficient rats [6])","mobilization of bone calcium at 35,100 pmol/day (vitamin D-deficient rats [6])",activity in mobilizing calcium from bone / serum calcium levels (vitamin D-deficient rats [6]),"times less potent than 1,25(OH)2D3 in bone (bone calcium mobilization) (vitamin D-deficient rats [6])","times less transcriptional activity than 1α,25-dihydroxyvitamin D3 in bone cells [5]",Ki [4],other results
"CC(O)CCCC(C)C1CCC2C(=CC=C3CC(O)C(C)C(O)C3)CCCC21C (single isomer, unassigned) [NC-2]",0.2 nM,"some intestinal calcium transport activity, but still not to the same extent as 1,25(OH)2D3","some intestinal calcium transport activity, but still not to the same extent as 1,25(OH)2D3",5 nM,bound equally well; also recorded: equivalent,0.6 nM,about one-half,"did not result, in mobilization of bone calcium",without any substantial effect,"little, if any, activity",more than 50 times,,,"logs less potent than 1,25(OH)2D3 in the intestine (vitamin D-deficient rats [2]; [8]): approximately 5 log; HL-60 differentiation potency as compared to 1,25(OH)2D3 [3]: little difference; times more potent than 1,25(OH)2D3 on HL-60 differentiation ([3]; more potent than 1,25(OH)2D3): 4 times; transcriptional activity in bone cells as compared to 1α,25-dihydroxyvitamin D3 [5]: slightly less transcriptional activity"
"C=C1/C(=C\C=C2/CCC[C@]3(C)[C@@H]([C@H](C)CCCC(C)(C)O)CC[C@@H]23)C[C@@H](O)C[C@@H]1O [1,25(OH)2D3, 1α,25-dihydroxyvitamin D3, reference compound]",,,,2 nM,,0.2 nM,,,,increased serum calcium levels,,,,intestinal calcium transport activity (vitamin D-deficient rats [2]; [9]): significant activity
"CC(O)CCCC(C)C1CCC2C(=CC=C3CC(O)C(C)C(O)C3)CCCC21C (single isomer, unassigned) [TH-1]",5 nM,,"some intestinal calcium transport activity, but still not to the same extent as 1,25(OH)D3",70 nM,,,about 2 log,,did not result in mobilization of bone calcium,"little, if any, activity",more than 50 times,~20 times,,"logs less potent than 1,25(OH)2D3 on HL-60 differentiation [3]: 3 log"
"CC(O)CCCC(C)C1CCC2C(=CC=C3CC(O)C(C)C(O)C3)CCCC21C (single isomer, unassigned) [TA-2]",,"some intestinal calcium transport activity, but still not to the same extent as 1,25(OH)2D3",,0.5 nM,bound equally well; also recorded: equivalent,0.08 nM,,did not result in mobilization of bone calcium,without any substantial effect,"little, if any, activity",more than 50 times,,,"logs less potent than 1,25(OH)2D3 in the intestine (vitamin D-deficient rats [2]; [8]): approximately 1 log and one; times more transcriptional activity than 1α,25-dihydroxyvitamin D3 in bone cells ([5]; more than 1,25(OH)2D3): about 4 times"
"CC1[C@H](O)CC(=C/C=C2\CCC[C@]3(C)[C@@H]([C@@H](C)CCC[C@H](C)O)CC[C@@H]23)C[C@H]1O (stereo partly drawn) [IB-1, (20S,25S)-2β-methyl-19,26-dinor-1α,25-dihydroxyvitamin D3]",,,"some intestinal calcium transport activity; but still not to the same extent as 1,25(OH)2D3",20 nM,,7 nM,about 3 log,,did not result in mobilization of bone calcium,"little, if any, activity",more than 50 times,approximately 30 times,0.8 nM,"logs less potent than 1,25(OH)2D3 on HL-60 differentiation [3]: one and about one; times less potent than 1,25(OH)2D3 on HL-60 differentiation [3]: 10 times"
"CC(O)CCCC(C)C1CCC2C(=CC=C3CC(O)C(C)C(O)C3)CCCC21C (single isomer, unassigned) [FD-1]",0.4 nM,,,6 nM,,1 nM,about 1 log,,,"little, if any, activity",more than 40 times,about 10 times,,"intestinal calcium transport at 21,060 pmol/day (vitamin D-deficient rats [2]; 21,060 pmol/day for 4 consecutive days, compared with 1,25(OH)2D3 at 780 pmol/day): some intestinal calcium transport, but hot to the same extent as 1,25(OH)2D3; intestinal calcium transport activity (vitamin D-deficient rats [2]; [9]): some, but very little, intestinal calcium transport activity; times less potent than 1,25(OH)2D3 in stimulating calcium transport in the gut (vitamin D-deficient rats [2]; [8]): approximately 40 times; mobilization of bone calcium at 21,060 pmol/day (vitamin D-deficient rats [6]; 21,060 pmol/day for 4 consecutive days): did not result in mobilization of bone calcium"
"CC1[C@H](O)CC(=C/C=C2\CCC[C@]3(C)[C@@H]([C@H](C)CCC[C@@H](C)O)CC[C@@H]23)C[C@H]1O (stereo partly drawn) [MY-2, (20R,25R)-2α-methyl-19,26-dinor-1α,25-dihydroxyvitamin D3]",,"some intestinal calcium transport activity, but still not to the same extent as 1,25(OH)2D3",,2 nM,bound equally well; also recorded: equivalent,0.4 nM,,did not result in mobilization of bone calcium,without any substantial effect,"little, if any, activity",more than 50 times,,0.2 nM,"HL-60 differentiation potency as compared to 1,25(OH)2D3 [3]: as potent as 1,25(OH)2D3; also recorded: little difference; transcriptional activity in bone cells as compared to 1α,25-dihydroxyvitamin D3 [5]: equivalent to 1α,25-dihydroxyvitamin D3; also recorded: about the same transcriptional activity"
"CC1[C@H](O)CC(=C/C=C2\CCC[C@]3(C)[C@@H]([C@H](C)CCC[C@@H](C)O)CC[C@@H]23)C[C@H]1O (stereo partly drawn) [DW-1, (20R,25R)-2β-methyl-19,26-dinor-1α,25-dihydroxyvitamin D3]",,,"some intestinal calcium transport activity, but still not to the same extent as 1,25(OH)2D3",60 nM,,20 nM,about 2 log,did not result in mobilization of bone calcium,without any substantial effect,"little, if any, activity",more than 50 times,~20 times,1 nM,"times less potent than 1,25(OH)2D3 on HL-60 differentiation [3]: about 30 times"
